According to patent US20080248134A1, “Oral compositions, use and combinations of N-[2-(dimethylamino)ethyl]-2,6 dimethyl-1-oxo-1,2-dihydrobenzo[b]-1,6-naphthyridine-4-carboxamide and closely related analogues thereof” (Auckland Uniservices Limited, priority 2005, published 2008):
Entries after “also recorded” stand apart in the source; their conditions may differ. Like-named read-outs stand apart in the source and are kept apart here.

Key:
HCT116p53+ = test: In vitro cell proliferation assay, continuous drug exposure; type: cell-based; settings: Homo sapiens, continuous drug exposure 3-5 days
Text: (§1) The results with the JLA and JLD lines, which have reduced topoisomerase II content as compared to the parental Jurkat line, indicate that the IC50 value of the compound is increased with decreased topoisomerase content. This is also the case for etoposide, amsacrine, DACA and doxorubicin.

HCT116p53− = test: as above; type: cell-based; settings: Homo sapiens, continuous drug exposure 3-5 days
Text: as §1

JLA [1] = test: as above; type: cell-based; settings: Homo sapiens; JLA (reduced topoisomerase II), continuous drug exposure 3-5 days
Text: as §1

JLD [2] = test: as above; type: cell-based; settings: Homo sapiens; JLD (reduced topoisomerase II), continuous drug exposure 3-5 days
Text: as §1

Jurkat = test: as above; type: cell-based; settings: Homo sapiens, continuous drug exposure 3-5 days
Text: as §1

[3] = tested on: HCT116 human colon carcinoma line, TP53 mutant; test: In vitro cell survival, clonogenic assay; type: cell-based; settings: p53 mutant HCT116, 6 hours exposure
Method: (§2) Two HCT116 human colon carcinoma lines, one with TP53 wild type status and one with TP53 mutant status, were exposed to the compound of Formula II for 6 hours. The cells were washed free of drug and surviving cells were measured by clonogenic assay. The concentration for maximal reduction of cell survival was 1% for p53 wild-type cells and 5% for p53 mutant cells. The cytotoxicity of the compound of the present invention was also tested in three Jurkat leukaemia lines, two of which, JLA and JLD, are resistant to topoisomerase inhibitors because of low cellular levels of topoisomerase II.

[4] = tested on: HCT116 human colon carcinoma line, TP53 wild type; test: In vitro cell survival, clonogenic assay; type: cell-based; settings: p53 wild-type HCT116, 6 hours exposure
Method: as §2

JLA [5] = test: In vitro cell survival assay; type: cell-based, human; settings: resistant line JLA, 0.4 μM, one hour exposure
Method: as §2

JLD [6] = test: In vitro cell survival assay; type: cell-based, human; settings: resistant line JLD, 0.4 μM, one hour exposure
Method: as §2

wild-type Jurkat line = test: In vitro cell survival assay; type: cell-based, human; settings: 0.4 μM, one hour exposure
Method: as §2

[7] = tested on: NZM4 melanoma line (mutant p53); test: Induction of cell cycle arrest, flow cytometry; type: cell-based, human; settings: NZM4, 0.3 μM for one hour, grown up to 9 days
Method: (§3) Flow cytometry was used to determine the magnitude and duration of cell cycle arrest induced by the compound of the present invention. Two human melanoma lines were used in a preliminary study, one having wild-type p53 status (NZM6) and one having mutant p53 status (NZM4). Cells were exposed to the compound of Formula II for one hour at a concentration of 0.3 μM, washed free of drug and grown for up to a further 9 days.

[8] = tested on: NZM6 melanoma line (wild-type p53); test: Induction of cell cycle arrest, flow cytometry; type: cell-based, human; settings: NZM6, 0.3 μM for one hour, grown up to 9 days
Method: as §3

[9] = tested on: p53, p21 and Fas in HCT116 (TP53 wild type); test: Induction of the p53 pathway, western blotting; type: cell-based, human
Text: The p53 protein is thought to play a major role in the induction of apoptosis in tumour cells (Levine A J. p53, the cellular gatekeeper for growth and division. Cell. 1997. 88(3):323-331). The p53 protein is a transcriptional activator, which acts in response to DNA damage and other stress pathways, and increases expression of proteins such as Fas and p21^WAF1. […] Products were detected by western blotting.

colon 38 tumours [10] = test: Murine colon 38 tumour response; type: in vivo; settings: single oral dose (8.9 mg/kg)
Text: The murine colon-38 carcinoma is a transplantable tumour that has been used extensively in drug development programmes to determine the activity of many different drugs (Goldin A et al. Current results of the screening program at the Division of Cancer Treatment, National Cancer Institute. European Journal of Cancer. 1981. 17(2):129-142). The tumour is implanted subcutaneously as 1-mm^3 fragments and allowed to grow (8 days) to a tumour of approximately 3 mm in diameter before administration of test drugs.

[11] = tested on: melanoma tissue taken from a patient; test: Response of a melanoma taken directly from a cancer patient, xenograft in immunodeficient mice; type: in vivo, human; settings: two doses of 5.9 mg/kg, 7 days apart
Method: Metastatic melanoma is particularly resistant to current chemotherapy. Melanoma tissue taken from a patient at surgery was implanted subcutaneously in immunodeficient mice. After three months, the tumour in one animal was excised and transferred to further immunodeficient mice. The tumours were grown to a diameter of approximately 4 mm before treatment and the compound of Formula II was administered in two doses of 5.9 mg/kg, 7 days apart.

Plasma pharmacokinetics = type: in vivo, mice; settings: for AUC: read-out: area under the plasma concentration-time profile for the first 8 hours (AUC)
Method: The plasma pharmacokinetics of the compound of Formula II, were compared following intravenous, intraperitoneal and oral administration at a dose of 8.9 mg/kg (26 μmol/kg). Mice were terminally anaesthetised at various times up to 8 hours after drug administration and blood was taken for preparation of plasma samples. Plasma concentrations of the compound of Formula II were measured by high performance liquid chromatography-mass spectrophometry. The results are shown in FIG. 6, the vertical bars showing the standard deviation of the mean values from three mice per time point.
As expected from the rate of gastric emptying, the initial increase in plasma and liver drug concentrations occur later after oral administration than they do after intravenous or intraperitoneal administration, but the plasma and tissue half-lives are similar.

colon 38 tumours [12] = test: Response of colon 38 tumours in immunocompetent and Rag1 immunodeficient mice; type: in vivo
Method: A single dose of 5.9 mg/kg of the compound of Formula II was administered intraperitoneally to immunocompetent mice in A, while a 5.9 mg/kg dose on days 0 and 7 was administered to Rag 1 immunodeficient mice (see FIG. 13). […] Initial tumour response (apoptosis induction) is similar in normal and immunosuppressed mice. The compound of Formula II appears to induce a change in tumour cells that activates a T-cell mediated response leading to tumour regression. This dependence on T-cells for response might explain why only moderate activity of the compound of Formula II is found in xenografts.

[13] = intraperitoneal administration, 8.9 mg/kg, mice
[14] = intravenous administration, 8.9 mg/kg, mice

SMILES: Cc1cccc2cc3c(=O)n(C)cc(C(=O)NCCN(C)C)c3nc12 [Formula II, N-[2-(dimethylamino)ethyl]-2,6 dimethyl-1-oxo-1,2-dihydrobenzo[b]-1,6-naphthyridine-4-carboxamide]
- IC50 (HCT116p53+): 8.6 nM
- IC50 (HCT116p53−): 11 nM
- IC50 (JLA [1]): 38 nM
- IC50 (JLD [2]): 53 nM
- IC50 (Jurkat): 6.7 nM
- maximal reduction of cell survival [3]: 5%
- maximal reduction of cell survival [4]: 1%
- survival (JLA [5]): 100%
- survival (JLD [6]): 100%
- survival (wild-type Jurkat line): 28%
- cell cycle arrest [7]: minimal effect in G1-phase but an extended effect in G2-phase
- cell cycle arrest [8]: extended arrest of NZM6 cells in both G1- and G2-phase
- induction of p53, p21 and Fas ([9]; 24 hours at higher cell density (approaching confluence)): induced these proteins
- induction of p53, p21 and Fas ([9]; 24 hours exposure): much greater response
- induction of p53, p21 and Fas ([9]; earlier times (4-10 hours)): induced these proteins
- response of colon 38 tumours (colon 38 tumours [10]): complete regression; also recorded: single dose cures
- melanoma growth [11]: strong inhibition of melanoma growth
- time-concentration profiles (plasma and liver) for the different routes of administration (Plasma pharmacokinetics; i.p., i.v. and p.o., non tumour bearing mice): quite comparable
- maximum plasma concentration (Plasma pharmacokinetics; [13]): 0.57 µM
- time at which maximum plasma concentration achieved (Plasma pharmacokinetics; [13]): 0.5 h
- maximum plasma concentration (Plasma pharmacokinetics; [14]): 1.24 µM
- time at which maximum plasma concentration achieved (Plasma pharmacokinetics; [14]): 0.08 h
- AUC (Plasma pharmacokinetics; mouse, plasma, ip, intraperitoneal administration, 8.9 mg/kg, mice): 1.63 µM·h
- bioavailability (Plasma pharmacokinetics; mouse, plasma, oral, relative to intraperitoneal administration, 8.9 mg/kg, mice, read-out: bioavailability following oral administration): 63%
- half-life (Plasma pharmacokinetics; mouse, plasma, all three routes of administration (i.v., i.p., oral), 8.9 mg/kg, mice, read-out: terminal plasma half life (converted)): ~210 min
- AUC (Plasma pharmacokinetics; mouse, plasma, intravenous administration, 8.9 mg/kg, mice): 1.99 µM·h
- AUC (Plasma pharmacokinetics; mouse, plasma, oral administration, 8.9 mg/kg, mice): 1.03 µM·h
- maximum plasma concentration (Plasma pharmacokinetics; oral administration, 8.9 mg/kg (26 μmol/kg), mice): 0.27 µM
- time at which maximum plasma concentration achieved (Plasma pharmacokinetics; oral administration, 8.9 mg/kg, mice): 2 h
- activity against colon 38 tumours (colon 38 tumours [12]; Rag1 immunodeficient mice, 5.9 mg/kg on days 0 and 7): attenuated
- activity against colon 38 tumours (colon 38 tumours [12]; immunocompetent mice, single dose of 5.9 mg/kg intraperitoneally): active
